Laboratory results published in ChEMBL document CHEMBL1140215, “Discovery of sodium R-(+)-4-{2-[5-(2-fluoro-3-methoxyphenyl)-3-(2-fluoro-6-[trifluoromethyl]benzyl)-4-methyl-2,6-dioxo-3,6-dihydro-2H-pyrimidin-1-yl]-1-phenylethylamino}butyrate (elagolix), a potent and orally available nonpeptide antagonist of the human gonadotropin-releasing hormone receptor” (J Med Chem, 2008).
Values belong to the compound of their own block, whether it stands above or below them. Active and inactive are the calls of the source. No cut-off for these calls is given here.

How the values were obtained:
[1] = AUC in mouse; format: ADME, organism-based; conditions: plasma
[2] = target: T1, Gonadotropin-releasing hormone receptor (Homo sapiens, UniProt P30968); experiment: Antagonist activity at human GnRH receptor expressed in RBL1 cells assessed as inhibition of GnRH-stimulated inositol phosphate production; format: functional, cell-based, RBL-1
T1 sequence (P30968 whole entry): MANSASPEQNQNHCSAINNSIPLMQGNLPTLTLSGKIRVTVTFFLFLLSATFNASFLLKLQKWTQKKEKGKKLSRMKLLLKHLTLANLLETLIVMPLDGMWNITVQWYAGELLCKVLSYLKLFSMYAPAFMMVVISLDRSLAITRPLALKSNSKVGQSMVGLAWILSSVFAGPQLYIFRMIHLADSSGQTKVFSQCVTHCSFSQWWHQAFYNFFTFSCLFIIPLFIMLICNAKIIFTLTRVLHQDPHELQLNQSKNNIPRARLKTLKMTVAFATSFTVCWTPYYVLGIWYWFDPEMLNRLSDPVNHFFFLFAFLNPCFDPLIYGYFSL

[3] = Oral bioavailability in rhesus monkey; format: ADME, organism-based, Macaca mulatta; conditions: in vivo
[4] = Volume of distribution in rhesus monkey; format: ADME, organism-based, Macaca mulatta; conditions: in vivo
[5] = Tmax in Beagle dog at 50 mg/kg, po; format: ADME, organism-based, Canis lupus familiaris; design: dose 50 mg/kg, route oral; conditions: in vivo
[6] = Cmax in rat at 3 mg/kg, iv; format: ADME, organism-based; design: dose 3 mg/kg, route intravenous; conditions: in vivo
[7] = Cmax in rhesus monkey; format: ADME, organism-based, Macaca mulatta; conditions: in vivo
[8] = (§1) AUC in rat at 3 mg/kg, iv; format: ADME, organism-based, Plasma; design: dose 3 mg/kg, route intravenous; conditions: plasma
[9] = Volume of distribution in mouse; format: ADME, organism-based; conditions: in vivo
Mast cell = experiment: Induction of histamine release in rat peritoneal mast cells; format: functional, cell-based
[10] = Bioavailability in rat at 3 mg/kg, iv; format: ADME, organism-based; conditions: in vivo
[11] = Plasma clearance in rat at 3 mg/kg, iv; format: ADME, organism-based; design: dose 3 mg/kg, route intravenous
[12] = Bioavailability in Beagle dog at 50 mg/kg; format: ADME, organism-based, Canis lupus familiaris; conditions: in vivo
[13] = Half life in rat at 3 mg/kg, iv; format: ADME, organism-based; design: dose 3 mg/kg, route intravenous; conditions: in vivo
Caco-2 [14] = experiment: Ratio of permeability from apical to basolateral side over basolateral to apical side in human Caco-2 cells; format: ADME, cell-based
[15] = Volume of distribution in rat at 3 mg/kg, iv; format: ADME, organism-based; design: dose 3 mg/kg, route intravenous; conditions: in vivo
[16] = Plasma clearance in mouse; format: ADME, organism-based
[17] = target: T2, Gonadotropin-releasing hormone receptor (Rattus norvegicus, UniProt P30969); experiment: Displacement of [125I-Tyr5,DLeu6,NMeLeu7,Pro9-NEt-]GnRH from rat GnRH receptor expressed in CHO cells by liquid scintillation counting; format: cell-based
T2 sequence (P30969 whole entry): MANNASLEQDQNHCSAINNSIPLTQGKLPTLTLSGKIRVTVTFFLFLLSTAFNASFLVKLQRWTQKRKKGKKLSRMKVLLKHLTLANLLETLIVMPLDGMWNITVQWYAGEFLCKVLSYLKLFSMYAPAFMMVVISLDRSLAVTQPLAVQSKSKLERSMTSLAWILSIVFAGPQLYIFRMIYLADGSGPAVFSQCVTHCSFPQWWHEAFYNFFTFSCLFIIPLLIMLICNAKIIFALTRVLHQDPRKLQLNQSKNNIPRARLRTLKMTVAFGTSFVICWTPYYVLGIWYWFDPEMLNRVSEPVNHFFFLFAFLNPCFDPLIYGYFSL

[18] = target: T1, Gonadotropin-releasing hormone receptor; experiment: Displacement of [125I-Tyr5,DLeu6,NMeLeu7,Pro9-NEt-]GnRH from human GnRH receptor expressed in HEK293 cells by liquid scintillation counting; format: cell-based
[19] = Plasma clearance in rhesus monkey; format: ADME, organism-based, Macaca mulatta
[20] = Half life in Beagle dog at 50 mg/kg, po; format: ADME, organism-based, Canis lupus familiaris; design: dose 50 mg/kg, route oral; conditions: in vivo
[21] = Apparent permeability across human Caco-2 cell membrane; format: ADME, cell-based
[22] = target: T3, Gonadotropin-releasing hormone receptor (Macaca mulatta, UniProt Q8SPZ1); experiment: Displacement of [125I-Tyr5,DLeu6,NMeLeu7,Pro9-NEt-]GnRH from monkey GnRH receptor expressed in CHO cells by liquid scintillation counting; format: cell-based
T3 sequence (Q8SPZ1 whole entry): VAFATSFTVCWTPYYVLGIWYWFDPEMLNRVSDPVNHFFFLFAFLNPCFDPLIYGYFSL

[23] = Cmax in Beagle dog at 50 mg/kg, po; format: ADME, organism-based, Canis lupus familiaris; design: dose 50 mg/kg, route oral; conditions: in vivo
Caco-2 [24] = experiment: Ratio of permeability from apical to basolateral side over basolateral to apical side in human Caco-2 cells at 1 mM; format: ADME, cell-based; conditions: caco-2, 1000 µM
[25] = Oral bioavailability in mouse; format: ADME, organism-based; conditions: in vivo
[26] = Lipophilicity, log D of the compound; format: physicochemical; conditions: octanol/water
[27] = Half life in rhesus monkey; format: ADME, organism-based, Macaca mulatta; conditions: in vivo
[28] = Tmax in rhesus monkey; format: ADME, organism-based, Macaca mulatta; conditions: in vivo
[29] = Tmax in rat at 3 mg/kg, iv; format: ADME, organism-based; design: dose 3 mg/kg, route intravenous; conditions: in vivo
[30] = Cmax in mouse; format: ADME, organism-based; conditions: in vivo
Cynomolgus monkey [31] = experiment: Suppression of circulating plasma LH levels in cynomolgus monkey at 30 mg/kg, po after 8 hrs; format: functional, Macaca fascicularis
[32] = Plasma clearance in Beagle dog at 50 mg/kg, po; format: ADME, organism-based, Canis lupus familiaris; design: dose 50 mg/kg, route oral
[33] = AUC in Beagle dog at 50 mg/kg, po; format: ADME, organism-based, Canis lupus familiaris; design: dose 50 mg/kg, route oral; conditions: plasma
[34] = Half life in mouse; format: ADME, organism-based; conditions: in vivo
Canis familiaris = experiment: Volume of distribution in Beagle dog at 50 mg/kg, po; format: ADME, organism-based, Canis lupus familiaris; design: dose 50 mg/kg, route oral; conditions: in vivo
Cytochrome P450 3A4 = Cytochrome P450 3A4 (Homo sapiens, UniProt P08684); experiment: Inhibition of CYP3A4; format: ADME
Cytochrome P450 3A4, sequence (P08684 whole entry): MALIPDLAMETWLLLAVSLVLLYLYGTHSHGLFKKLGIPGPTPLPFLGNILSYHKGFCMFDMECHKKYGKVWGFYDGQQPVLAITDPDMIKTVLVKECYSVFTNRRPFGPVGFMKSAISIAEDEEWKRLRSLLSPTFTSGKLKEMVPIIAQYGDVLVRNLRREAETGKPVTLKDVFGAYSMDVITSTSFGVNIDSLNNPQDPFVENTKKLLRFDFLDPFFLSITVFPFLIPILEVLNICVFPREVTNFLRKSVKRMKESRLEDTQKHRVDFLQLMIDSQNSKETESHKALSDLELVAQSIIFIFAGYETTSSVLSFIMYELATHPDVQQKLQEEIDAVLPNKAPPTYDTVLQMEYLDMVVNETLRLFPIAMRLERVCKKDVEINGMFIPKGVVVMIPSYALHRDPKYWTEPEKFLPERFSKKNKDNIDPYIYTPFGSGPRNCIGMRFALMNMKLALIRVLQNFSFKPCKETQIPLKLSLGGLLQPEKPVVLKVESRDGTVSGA

[35] = AUC in rhesus monkey; format: ADME, organism-based, Macaca mulatta; conditions: plasma
[36] = Tmax in mouse; format: ADME, organism-based; conditions: in vivo
[37] = Cmax in rat at 10 mg/kg, iv and 10 mg/kg, po; format: ADME, organism-based; conditions: in vivo
[38] = Tmax in rat at 10 mg/kg, iv and 10 mg/kg, po; format: ADME, organism-based; conditions: in vivo
[39] = AUC in rat at 10 mg/kg, iv and 10 mg/kg, po; format: ADME, organism-based; conditions: plasma
[40] = Volume of distribution in rat at 10 mg/kg, iv and 10 mg/kg, po; format: ADME, organism-based; conditions: in vivo
[41] = Plasma clearance in rat at 10 mg/kg, iv and 10 mg/kg, po; format: ADME, organism-based
[42] = Oral bioavailability in rat at 10 mg/kg, iv and 10 mg/kg, po; format: ADME, organism-based; conditions: in vivo
[43] = Half life in rat at 10 mg/kg, iv and 10 mg/kg, po; format: ADME, organism-based; conditions: in vivo
Cynomolgus monkey [44] = experiment: Suppression of circulating plasma LH levels in cynomolgus monkey at 30 mg/kg, po after 4 to 8 hrs; format: functional, Macaca fascicularis
Rattus norvegicus = experiment: as §1; format: ADME, organism-based, Plasma; design: dose 3 mg/kg, route intravenous; conditions: in vivo

- IC50 [2]: 0.5 nM
- Cmax [37]: 15 ng/mL
- Ki [17]: 1200 nM
- Tmax [38]: 1.2 h
- AUC [39]: 46 ng·h/mL
- IC50 (Cytochrome P450 3A4): 230 nM
Compound: COc1cccc(-c2c(C)n(Cc3c(F)cccc3C(F)(F)F)c(=O)n(C[C@H](N)c3ccccc3)c2=O)c1F

- Cmax [6]: 592 ng/mL
- AUC [8]: 385 ng·h/mL
- bioavailability [10]: 3.7%
- clearance [11]: 26.4 mL/min/kg
- half-life [13]: 2.6 h
- Ratio (Caco-2 [14]): 4
- Vd [15]: 3.2 L/kg
- Ki [18]: 3.7 nM
- Papp [21]: 7.5 ×10⁻⁶ cm/s
- Tmax [29]: 0.25 h
- IC50 (Cytochrome P450 3A4): 69000 nM
Compound: COc1cccc(-c2c(C)n(Cc3c(F)cccc3C(F)(F)F)c(=O)n(C[C@@H](c3ccccc3)N(C)CCCC(=O)O)c2=O)c1F

- Vd [40]: 7.1 L/kg
- Cmax [37]: 24.2 ng/mL
- clearance [41]: 64.7 mL/min/kg
- Papp [21]: 17.6 ×10⁻⁶ cm/s
- logD [26]: 1.8
- Tmax [38]: 1 h
- bioavailability [42]: 3.5%
- half-life [43]: 1.3 h
- AUC [39]: 106 ng·h/mL
- IC50 (Cytochrome P450 3A4): 700 nM
Compound: COc1cccc(-c2c(C)n(Cc3c(F)cccc3F)c(=O)n(C[C@H](N)c3ccccc3)c2=O)c1F
- Activity (Cynomolgus monkey [44]): 50%

- Ki [18]: 12 nM
- IC50 (Cytochrome P450 3A4): 69000 nM
Compound: COc1cccc(-c2c(C)n(Cc3c(F)cccc3C(F)(F)F)c(=O)n(C[C@H](NCCC(=O)O)c3ccccc3)c2=O)c1F

- Ki [18]: 71 nM
Compound: COc1cccc(-c2c(C)n(Cc3c(F)cccc3C(F)(F)F)c(=O)n(C[C@H](NCC(=O)O)c3ccccc3)c2=O)c1F

The remaining lines, values behind:

Compound: COc1cccc(-c2c(C)n(Cc3c(F)cccc3C(F)(F)F)c(=O)n(C[C@H](NCCCC(=O)[O-])c3ccccc3)c2=O)c1F.[Na+] [ELAGOLIX SODIUM]
- AUC [1]: 326 ng·h/mL
- IC50 [2]: 1.5 nM
- bioavailability [3]: 11%
- Vd [4]: 2.5 L/kg
- Tmax [5]: 2 h
- Cmax [6]: 338 ng/mL
- Cmax [7]: 518 ng/mL
- AUC [8]: 290 ng·h/mL
- Vd [9]: 1.4 L/kg
- Activity (Mast cell): inactive
- bioavailability [10]: 5.8%
- clearance [11]: 33.3 mL/min/kg
- bioavailability [12]: 100%
- half-life [13]: 0.9 h
- Ratio (Caco-2 [14]): 9.2
- Vd [15]: 2.6 L/kg
- clearance [16]: 50 mL/min/kg
- Ki [17]: 4400 nM
- Ki [18]: 0.9 nM
- clearance [19]: 25.7 mL/min/kg
- half-life [20]: 2.8 h
- Papp [21]: 2.8 ×10⁻⁶ cm/s
- Ki [22]: 3.3 nM
- Cmax [23]: 13900 ng/mL
- Ratio (Caco-2 [24]): 1.3
- bioavailability [25]: 10%
- logD [26]: 2
- half-life [27]: 1.1 h
- Tmax [28]: 0.69 h
- Tmax [29]: 0.25 h
- Cmax [30]: 741 ng/mL
- Activity (Cynomolgus monkey [31]): 75%
- CL/F [32]: 14.5 mL/min/kg
- AUC [33]: 80700 ng·h/mL
- half-life [34]: 0.3 h
- Vd (Canis familiaris): 0.92 L/kg
- IC50 (Cytochrome P450 3A4): 56000 nM
- AUC [35]: 699 ng·h/mL
- Tmax [36]: 0.25 h

Compound: COC(=O)CCCN[C@@H](Cn1c(=O)c(-c2cccc(OC)c2F)c(C)n(Cc2c(F)cccc2C(F)(F)F)c1=O)c1ccccc1
- Ki [18]: 4.2 nM
- IC50 (Cytochrome P450 3A4): 440 nM

Compound: COc1cccc(-c2c(C)n(Cc3c(F)cccc3C(F)(F)F)c(=O)n(C[C@H](NCCCCC(=O)O)c3ccccc3)c2=O)c1F
- Ki [18]: 7.6 nM
- IC50 (Cytochrome P450 3A4): 29000 nM

Compound: COc1cccc(-c2c(C)n(Cc3c(F)cccc3Cl)c(=O)n(C[C@H](NCCCC(=O)O)c3ccccc3)c2=O)c1F
- IC50 [2]: 3.2 nM
- Ki [18]: 1.1 nM
- IC50 (Cytochrome P450 3A4): 11000 nM

Compound: COc1cccc(-c2c(C)n(Cc3c(F)cccc3F)c(=O)n(C[C@H](NCCCC(=O)O)c3ccccc3)c2=O)c1F
- IC50 [2]: 27 nM
- Cmax [6]: 25 ng/mL
- AUC (Rattus norvegicus): 81 ng·h/mL
- bioavailability [10]: 1.1%
- half-life [13]: 4.5 h
- Ratio (Caco-2 [14]): 51
- Vd [15]: 8.5 L/kg
- Ki [17]: > 10000 nM
- Ki [18]: 2.1 nM
- Papp [21]: 0.4 ×10⁻⁶ cm/s
- logD [26]: 0.2
- Tmax [29]: 0.8 h
- IC50 (Cytochrome P450 3A4): 135000 nM
